Read-outs that look alike come from different tables or passages of the source.
How the values were obtained:
MOLM-13 = assay: Secondary dose-response HTS, Cell Titer Glo; type: cell-based, human
CHRF288-11 = assay: Secondary dose-response HTS, Cell Titer Glo; type: cell-based, human; conditions: secondary high-throughput screen, CHRF288-11; for EC50: Homo sapiens, HTS, read-out: average effective concentration, CHRF288-11
MV4-11 = assay: Secondary dose-response HTS, Cell Titer Glo; type: cell-based, human
CMK = assay: Secondary dose-response HTS, Cell Titer Glo; type: cell-based, human; conditions: CMK; for EC50: Homo sapiens, read-out: average effective concentration, CMK
ML2 = assay: Secondary dose-response HTS, Cell Titer Glo; type: cell-based, human
U937 = assay: Secondary dose-response HTS, Cell Titer Glo; type: cell-based, human; conditions: for EC50: Homo sapiens
M07e = assay: cells; design: species or system AML cell lines (8); Secondary HTS, 10-point dose-response in triplicate, Cell Titer Glo viability, four-parameter fit EC50; conditions: M-07e, 72 h, read-out: M07e
CMS = assay: cells; design: species or system AML cell lines (8); Secondary HTS, 10-point dose-response in triplicate, Cell Titer Glo viability, four-parameter fit EC50; conditions: 72 h, read-out: CMS
[1] = secondary high-throughput screen, MOLM-13
[2] = secondary high-throughput screen, MV4-11
[3] = secondary high-throughput screen
[4] = secondary high-throughput screen, ML-2
[5] = Homo sapiens, secondary high-throughput screen, MOLM-13, read-out: average effective concentration, MOLM-13
[6] = U-937, secondary high-throughput screen, U937, read-out: average effective concentration, U937
[7] = Homo sapiens, secondary high-throughput screen, ML-2, read-out: average effective concentration, ML-2
[8] = Homo sapiens, secondary high-throughput screen, MV4-11, read-out: average effective concentration, MV4-11
[9] = secondary high-throughput screen, U937

N#C/C(=C\c1ccc(-c2cc(Cl)ccc2Cl)o1)C(=O)Nc1cccc2ncccc12 [AGK 2]
average effective concentration, MOLM-13 (MOLM-13; [1]): Inactive | average effective concentration, CHRF288-11 (CHRF288-11): Inactive | average effective concentration, MV4-11 (MV4-11; [2]): Inactive | average effective concentration, CMK (CMK; [3]): Inactive | average effective concentration, ML-2 (ML2; [4]): Inactive

O=C(Nc1ncc([N+](=O)[O-])s1)c1ccc([N+](=O)[O-])c(Cl)c1 [SM-7368]
average effective concentration, MOLM-13 (MOLM-13; [1]): Inactive | average effective concentration, CHRF288-11 (CHRF288-11): Inactive | average effective concentration, MV4-11 (MV4-11; [2]): Inactive | average effective concentration, CMK (CMK; [3]): Inactive

Cc1ccc(NC(=O)CCCCCC(=O)Nc2ccccc2N)cc1 [PIMELIC DIPHENYLAMIDE 106]
average effective concentration, MV4-11 (MV4-11; [2]): Inactive | average effective concentration, CMK (CMK; [3]): Inactive

Nc1nc(NC2CC2)cc(-c2cccc(Cl)c2Cl)n1 [TH588]
average effective concentration, MOLM-13 (MOLM-13; [1]): Inactive | average effective concentration, CHRF288-11 (CHRF288-11): Inactive | average effective concentration, MV4-11 (MV4-11; [2]): Inactive

COc1cc(O)c2c(c1)/C=C/C[C@H](O)[C@H](O)C(=O)/C=C\C[C@H](C)OC2=O [(5Z)-7-OXOZEAENOL]
average effective concentration, MOLM-13 (MOLM-13; [1]): Inactive | average effective concentration, MV4-11 (MV4-11; [2]): Inactive

CNC(=O)c1ccccc1Nc1nc(Nc2ccc(N3CCOCC3)cc2OC)ncc1Cl [NVP-TAE226]
average effective concentration, MV4-11 (MV4-11; [2]): Inactive

CNC(=O)c1cc(Oc2ccc(NC(=O)Nc3ccc(Cl)c(C(F)(F)F)c3)cc2)ccn1 [Sorafenib, reference compound]
EC50 (MOLM-13; [5]): 18 nM | average effective concentration, CMK (CMK; [3]): 387 | EC50 (U937; [6]): > 10000 nM | EC50 (ML2; [7]): > 10000 nM

O=C(c1ccc(Nc2nccc(-c3cc4ccccc4s3)n2)cc1)N1CCC(N2CCCC2)CC1 [IKK 16]
average effective concentration, MOLM-13 (MOLM-13; [1]): Inactive | average effective concentration, MV4-11 (MV4-11; [2]): Inactive

O=C(CCCCCCNC(=O)c1cnc(N(c2ccccc2)c2ccccc2)nc1)NO [ROCILINOSTAT]
average effective concentration, MOLM-13 (MOLM-13; [1]): Inactive | average effective concentration, MV4-11 (MV4-11; [2]): Inactive

CCN1CCN(CC(=O)Nc2ccc(-c3cccc4c(=O)cc(N5CCOCC5)oc34)c3sc4ccccc4c23)CC1 [KU-0060648]
average effective concentration, MV4-11 (MV4-11; [2]): Inactive

CO[C@@H]1[C@H](N(C)C(=O)c2ccccc2)C[C@H]2O[C@]1(C)n1c3ccccc3c3c4c(c5c6ccccc6n2c5c31)C(=O)NC4 [MIDOSTAURIN]
EC50 (MOLM-13; [5]): 65 nM | EC50 (ML2; [7]): 17 nM

CN(C)C1CCN(C(=O)c2ccc(NC(=O)Nc3ccc(-c4nc(N5CCOCC5)nc(N5CCOCC5)n4)cc3)cc2)CC1 [Gedatolisib]
EC50 (MOLM-13; [5]): 190 nM | EC50 (MV4-11; [8]): 47 nM | EC50 (CMK; [3]): 7700 nM | EC50 (U937; [6]): 24 nM

COc1ccc(C[C@H](NC(=O)[C@H](C)NC(=O)CN2CCOCC2)C(=O)N[C@@H](Cc2ccccc2)C(=O)C2(C)CO2)cc1 (stereo in doubt) [ONX-0914, reference compound]
EC50 (MV4-11; secondary HTS, 72 h, average of triplicate, read-out: EC50 MV4-11): 50 nM | EC50 (ML2; secondary HTS, 72 h, average of triplicate, read-out: EC50 ML2): 40 nM

Cc1ccc(NCCCc2ccccc2)c(N)c1 [JSH-23]
average effective concentration, MOLM-13 (MOLM-13; [1]): Inactive | average effective concentration, MV4-11 (MV4-11; [2]): Inactive

AZD4547
EC50 (MOLM-13; secondary high-throughput screen, MOLM-13, read-out: average effective concentration, MOLM-13): 4100 nM | EC50 (MV4-11; secondary high-throughput screen, MV4-11, read-out: average effective concentration, MV4-11): 7800 nM

C[C@@H]1NC(=O)[C@H]2CCCN2C(=O)[C@H](CCCCCC(=O)[C@@H]2CO2)NC(=O)[C@@H](C)NC1=O [HC TOXIN]
average effective concentration, MV4-11 (MV4-11; [2]): Inactive | average effective concentration, CMK (CMK; [3]): Inactive

COc1cc(N2CCC(N3CCN(C)CC3)CC2)ccc1Nc1ncc(Cl)c(Nc2ccccc2P(C)(C)=O)n1 [AP26113]
EC50 (M07e): > 10000 nM | EC50 (MOLM-13; [5]): 260 nM | EC50 (CHRF288-11): 6000 nM | EC50 (MV4-11; [8]): 600 nM | EC50 (CMK; [3]): 6500 nM | EC50 (U937; [6]): 7800 nM | EC50 (ML2; [7]): 4000 nM | EC50 (CMS): > 10000 nM

NC(=O)c1cccc2cn(-c3ccc([C@@H]4CCCNC4)cc3)nc12 [NIRAPARIB]
EC50 (MOLM-13; [5]): 7600 nM | EC50 (CHRF288-11): 220 nM | EC50 (MV4-11; [8]): > 10000 nM | EC50 (CMK; [3]): 280 nM | EC50 (U937; [6]): > 10000 nM | EC50 (ML2; [7]): 180 nM

COc1cc2ncnc(-n3nc(-c4ccccn4)nc3N)c2cc1OC [CP-466722]
average effective concentration, MOLM-13 (MOLM-13; [1]): Inactive | average effective concentration, CHRF288-11 (CHRF288-11): Inactive | average effective concentration, MV4-11 (MV4-11; [2]): Inactive | average effective concentration, CMK (CMK; [3]): Inactive | average effective concentration, U937 (U937; [9]): Inactive | average effective concentration, ML-2 (ML2; [4]): Inactive

CCNC(=O)c1noc(-c2cc(C(C)C)c(O)cc2O)c1-c1ccc(CN2CCOCC2)cc1 [NVP-AUY922]
EC50 (M07e): > 10000 nM | EC50 (MOLM-13; [5]): 1 nM | EC50 (CHRF288-11): 21 nM | EC50 (MV4-11; [8]): 1 nM | EC50 (CMK; [3]): 1 nM | EC50 (U937; [6]): 1 nM | EC50 (ML2; [7]): 23 nM | EC50 (CMS): > 10000 nM

Cc1cc(Nc2cc(N3CCN(C)CC3)nc(Sc3ccc(NC(=O)C4CC4)cc3)n2)[nH]n1 [TOZASERTIB]
EC50 (MOLM-13; Homo sapiens, MOLM-13, read-out: average effective concentration, MOLM-13): 39 nM | EC50 (MV4-11; Homo sapiens, MV4-11, read-out: average effective concentration, MV4-11): 68 nM | EC50 (CMK): 1400 nM | EC50 (U937; U-937, read-out: average effective concentration, U937): > 10000 nM | EC50 (ML2; Homo sapiens, ML-2, read-out: average effective concentration, ML-2): > 10000 nM

CC(C)C(=O)SCCCCCCC(=O)Nc1nc(-c2ccccc2)cs1 [NCH 51]
average effective concentration, MV4-11 (MV4-11; [2]): Inactive | average effective concentration, CMK (CMK; [3]): Inactive

CN(c1ncccc1CNc1nc(Nc2ccc3c(c2)CC(=O)N3)ncc1C(F)(F)F)S(C)(=O)=O [PF-00562271]
average effective concentration, MOLM-13 (MOLM-13; [1]): Inactive | average effective concentration, CHRF288-11 (CHRF288-11): Inactive | average effective concentration, MV4-11 (MV4-11; [2]): Inactive

O=C(Nc1ccccc1-c1cn2c(CN3CCNCC3)csc2n1)c1cnc2ccccc2n1 [SRT1720]
average effective concentration, MV4-11 (MV4-11; [2]): Inactive | average effective concentration, CMK (CMK; [3]): Inactive

Br.Cc1cc2nc(NCCCO)n(CC(=O)c3cc(C(C)(C)C)c(O)c(C(C)(C)C)c3)c2cc1C [CID-2858522]
average effective concentration, MOLM-13 (MOLM-13; [1]): Inactive | average effective concentration, CHRF288-11 (CHRF288-11): Inactive | average effective concentration, MV4-11 (MV4-11; [2]): Inactive | average effective concentration, CMK (CMK; [3]): Inactive

Cc1cc(Cl)ccc1OCCCC(=O)NO [DROXINOSTAT]
average effective concentration, MOLM-13 (MOLM-13; [1]): Inactive | average effective concentration, MV4-11 (MV4-11; [2]): Inactive | average effective concentration, CMK (CMK; [3]): Inactive | average effective concentration, U937 (U937; [9]): Inactive | average effective concentration, ML-2 (ML2; [4]): Inactive

COc1ccc([C@@]23Oc4cc(OC)cc(OC)c4[C@]2(O)[C@H](O)[C@H](C(=O)N(C)C)[C@H]3c2ccccc2)cc1 [ROCAGLAMIDE A]
average effective concentration, MV4-11 (MV4-11; [2]): Inactive

O=c1cc(N2CCOCC2)oc2c(-c3cccc4c3sc3ccccc34)cccc12 [NU 7441]
average effective concentration, MOLM-13 (MOLM-13; [1]): Inactive | average effective concentration, CHRF288-11 (CHRF288-11): Inactive | average effective concentration, MV4-11 (MV4-11; [2]): Inactive | average effective concentration, CMK (CMK; [3]): Inactive | average effective concentration, U937 (U937; [9]): Inactive

C=CC(=O)Nc1cccc(Nc2nc(Nc3ccc(OCCOC)cc3)ncc2F)c1 [CC-292 (AVL-292)]
average effective concentration, MOLM-13 (MOLM-13; [1]): Inactive | average effective concentration, CHRF288-11 (CHRF288-11): Inactive | average effective concentration, MV4-11 (MV4-11; [2]): Inactive

Nc1ccc2ncnc(NCCc3ccc(Oc4ccccc4)cc3)c2c1 [QNZ]
average effective concentration, MOLM-13 (MOLM-13; [1]): Inactive | average effective concentration, CHRF288-11 (CHRF288-11): Inactive | average effective concentration, MV4-11 (MV4-11; [2]): Inactive | average effective concentration, CMK (CMK; [3]): Inactive | average effective concentration, ML-2 (ML2; [4]): Inactive

CN(C)CCCNc1c2ccccc2nc2c1[nH]c1ccccc12 [SYUIQ-5]
average effective concentration, MV4-11 (MV4-11; [2]): Inactive | average effective concentration, CMK (CMK; [3]): Inactive
